One compound from ChEMBL document CHEMBL5537152, “Targeted Degradation of PCSK9 In Vivo by Autophagy-Tethering Compounds” (J Med Chem, 2024) can be followed below.

For assay [1], the system named is Mus musculus. In words: Synergistic antiatherosclerotic activity in hypercholesterolemic ApoE-/- mouse model assessed as decrease in plasma LDL-C level at 15 mg/kg, ip administered daily for 3 weeks. Set-up: scale not given: the % may be the effect or the level left. The format is functional.
In assay [2] the test system is Mus musculus. In words: Antiatherosclerotic activity in hypercholesterolemic ApoE-/- mouse model assessed as decrease in plasma LDL-C level at 15 mg/kg/day, ip measured after 21 days relative to control. In kind it is functional. The following applies: time 21 day.

On to `CCC(C)(C)C(=O)O[C@H]1C[C@@H](C)C=C2C=C[C@H](C)[C@H](CC[C@@H]3C[C@@H](O)CC(=O)O3)[C@H]21` [SIMVASTATIN], for which the Activity in assay [1] is listed as 23.59%. The Efficacy in assay [2] is reported as 23.59%.
